Experiment: Clinical trial safety, ALKA, STARTRK-1, STARTRK-2, STARTRK-NG (interim, N=355)
[1] = may be underestimated, 4.5% had no post-treatment liver function tests
[2] = patients with at least one post-baseline ECG assessment
[3] = worsening from baseline, NCI CTCAE v5.0

CN1CCN(c2ccc(C(=O)Nc3n[nH]c4ccc(Cc5cc(F)cc(F)c5)cc34)c(NC3CCOCC3)c2)CC1 [Entrectinib, N-[5-(3,5-difluorobenzyl)-1H-indazol-3-yl]-4-(4-methyl-piperazin-1-yl)-2-(tetrahydro-pyran-4-ylamino)-benzamide]
Cognitive impairment: mental status changes (human, in vivo): 2% | Discontinuation due to hyperuricemia (human, in vivo): No patients discontinued | Dose interruption due to anemia (human, in vivo): 3.1% | Dose interruption due to cognitive disorder (human, in vivo): 2% | Dose interruption due to diarrhea (human, in vivo): 2.8% | Dose interruption due to dizziness (human, in vivo): 2.5% | Dose interruption due to dyspnea (human, in vivo): 2.3% | Dose interruption due to fatigue (human, in vivo): 3.7% | Dose interruption due to increased blood creatinine (human, in vivo): 4% | Dose interruption due to nausea (human, in vivo): 2.3% | Dose interruption due to neutropenia (human, in vivo): 2% | Dose interruption due to pneumonia (human, in vivo): 2.3% | Dose interruption due to pyrexia (human, in vivo): 2.8% | Dose interruptions due to adverse reactions (human, in vivo): 46% | Dose reduction due to anemia (human, in vivo): 1.7% | Dose reduction due to dizziness (human, in vivo): 3.9% | Dose reduction due to fatigue (human, in vivo): 2.3% | Dose reduction due to increased blood creatinine (human, in vivo): 3.1% | Dose reduction due to increased weight (human, in vivo): 1.4% | Dose reductions due to adverse reactions (human, in vivo): 29% | Entrectinib discontinued due to increased AST or ALT (human, in vivo): 0.8% | Grade 3 cognitive adverse reactions (human, in vivo): 4.5% | Grade 3 mood disorders (human, in vivo): 0.6% | Grade 3 or 4 adverse reactions (human, in vivo): 60% | Grade 3 or 4 cognitive disorders (human, in vivo): 4.5% | Grade 3 or 4 diarrhea (human, in vivo): 2% | Grade 3 or 4 dyspnea (human, in vivo): 6% | Grade 3 or 4 fatigue/asthenia (human, in vivo): 5% | Grade 3 or 4 hypotension (human, in vivo): 2.8% | Grade 3 or 4 hypoxia (human, in vivo): 3.4% | Grade 3 or 4 increased weight (human, in vivo): 7% | Grade 3 or 4 lung infection (human, in vivo): 5% | Grade 3 or 4 pleural effusion (human, in vivo): 3.1% | Grade 3 or 4 pulmonary embolism (human, in vivo): 3.4% | Grade 3 or 4 syncope (human, in vivo): 2.5% | Grade 3 or 4 urinary tract infection (human, in vivo): 2.5% | Grade 3 sleep disturbances (human, in vivo): 0.6% | Hyperuricemia resolved following urate-lowering medication without interruption or dose reduction (human, in vivo): 73% | Incidence of CNS adverse reactions in patients with and without CNS metastases (human, in vivo): similar | Mood disorders: agitation (human, in vivo): 2% | Mood disorders: anxiety (human, in vivo): 4.8% | Mood disorders: depression (human, in vivo): 2.8% | Most common adverse reactions (≥20%) (human, in vivo): fatigue, constipation, dysgeusia, edema, dizziness, diarrhea, nausea, dysesthesia, dyspnea, myalgia, cognitive impairment, increased weight, cough, vomiting, pyrexia, arthralgia and vision disorders | Myocarditis in the absence of CHF (human, in vivo): 0.3% | Permanent discontinuation due to an adverse reaction (human, in vivo): 9% | Permanent discontinuation due to cardio-respiratory arrest (human, in vivo): < 1% | Permanent discontinuation due to dyspnea (human, in vivo): < 1% | Permanent discontinuation due to fatigue (human, in vivo): < 1% | Permanent discontinuation due to pneumonia (human, in vivo): < 1% | Serious adverse reaction: dyspnea (human, in vivo): 3.7% | Serious adverse reaction: pleural effusion (human, in vivo): 3.4% | Serious adverse reaction: pneumonia (human, in vivo): 3.9% | Serious adverse reaction: pulmonary embolism (human, in vivo): 2.3% | Serious adverse reaction: pyrexia (human, in vivo): 2% | Serious adverse reaction: respiratory failure (human, in vivo): 2% | Serious adverse reaction: sepsis (human, in vivo): 2.5% | Serious adverse reactions (human, in vivo): 39% | Sleep disturbances: hypersomnia (human, in vivo): 1.1% | Sleep disturbances: insomnia (human, in vivo): 7% | Sleep disturbances: sleep disorder (human, in vivo): 0.3% | Sleep disturbances: somnolence (human, in vivo): 7% | Vision changes, Grade 1 (human, in vivo): 82% | Vision changes, Grade 2 (human, in vivo): 14% | Vision changes, Grade 3 (human, in vivo): 0.8% | Vision disorders: blurred vision (human, in vivo): 8.7% | Vision disorders: cataract (human, in vivo): 1.1% | Vision disorders: diplopia (human, in vivo): 3.1% | Vision disorders: photophobia (human, in vivo): 5.1% | Vision disorders: photopsia (human, in vivo): 1.3% | Vision disorders: visual impairment (human, in vivo): 2% | Vision disorders: vitreous floaters (human, in vivo): 1.1% | Grade 4 hyperuricemia (including one patient who died due to tumor lysis syndrome): 1.7% | Grade 3-4 increased ALT [1]: 2.8% | Grade 3-4 increased AST [1]: 2.5% | Cognitive impairment symptoms occurred within 3 months of starting entrectinib (of the 96 patients with cognitive impairment): 77% | QTcF interval >500 ms [2]: 0.6% | QTcF interval prolongation of >60 ms after starting entrectinib [2]: 3.1% | Mood disorders, median time to onset (range: 1 day to 9 months): 1 month | Increased ALT, median time to onset (range: 1 day to 9.2 months): 2 weeks | Increased AST, median time to onset (range: 1 day to 29.5 months): 2 weeks | Completed suicide (reported 11 days after treatment had ended): One | Grade 4 myocarditis after one dose of entrectinib (resolved after discontinuation and high-dose corticosteroids): One | Increased AST or ALT leading to dose reductions (second value of 'respectively'): 0.8% | Laboratory: Anemia, All Grades (worsening from baseline): 67% | Laboratory: Anemia, Grade 3 or 4 (worsening from baseline): 9% | Laboratory: Hyperkalemia, All Grades (worsening from baseline): 25% | Laboratory: Hyperkalemia, Grade 3 or 4 (worsening from baseline): 1.5% | Laboratory: Hypernatremia, All Grades (worsening from baseline): 35% | Laboratory: Hypernatremia, Grade 3 or 4 (worsening from baseline): 0.9% | Laboratory: Hyperuricemia, All Grades (worsening from baseline): 52% | Laboratory: Hyperuricemia, Grade 3 or 4 (worsening from baseline): 10% | Laboratory: Hypoalbuminemia, All Grades (worsening from baseline): 28% | Laboratory: Hypoalbuminemia, Grade 3 or 4 (worsening from baseline): 2.9% | Laboratory: Hypocalcemia, All Grades (worsening from baseline): 34% | Laboratory: Hypocalcemia, Grade 3 or 4 (worsening from baseline): 1.8% | Laboratory: Hypophosphatemia, All Grades (worsening from baseline): 30% | Laboratory: Hypophosphatemia, Grade 3 or 4 (worsening from baseline): 7% | Laboratory: Increased ALT, All Grades (worsening from baseline): 38% | Laboratory: Increased ALT, Grade 3 or 4 (worsening from baseline): 2.9% | Laboratory: Increased AST, All Grades (worsening from baseline): 44% | Laboratory: Increased AST, Grade 3 or 4 (worsening from baseline): 2.7% | Laboratory: Increased alkaline phosphatase, All Grades (worsening from baseline): 25% | Laboratory: Increased alkaline phosphatase, Grade 3 or 4 (worsening from baseline): 0.9% | Laboratory: Increased amylase, All Grades (worsening from baseline): 26% | Laboratory: Increased amylase, Grade 3 or 4 (worsening from baseline): 5.4% | Laboratory: Increased lipase, All Grades (worsening from baseline): 28% | Laboratory: Increased lipase, Grade 3 or 4 (worsening from baseline): 10% | Laboratory: Lymphopenia, All Grades (worsening from baseline): 40% | Laboratory: Lymphopenia, Grade 3 or 4 (worsening from baseline): 12% | Laboratory: Neutropenia, All Grades (worsening from baseline): 28% | Laboratory: Neutropenia, Grade 3 or 4 (worsening from baseline): 7% | Laboratory: Hyperglycemia, Grade 3 or 4 [3]: 3.8% | Laboratory: Increased creatinine, All Grades [3]: 73% | Laboratory: Increased creatinine, Grade 3 or 4 [3]: 2.1%

— US20220257592A1, “METHODS OF TREATING CANCER” (HOFFMANN-LA ROCHE INC., priority 2019, published 2022)
